Test results taken from US4880777A, “Synthetic peptides having growth hormone releasing activity” (Eastman Kodak Company, priority 1987, dated 1989).
Where “and” joins values, the source holds several entries; their conditions need not be identical. Identical values can stand only once. Where a SMILES comes first, the peptide text is derived from it. Bridges are numbered along the chain shown (N, C = ends). [ ]: non-standard residue; d: D form. Nle = CCCC[C@H](N)C(=O)O

What was measured:
[1] = test system: growth hormone (GH); test: In vivo synergistic effects on GH release in rats of combinations with Compound B (Group 3) and Compound C (Group 2); conditions: for synergism with Group 3 Compound B (in words): combination with Compound B (Tyr-DArg-Phe-Gly-NH2)
Procedure: (§1) Immature female Sprague-Dawley rats were obtained from the Charles River Laboratories (Wilmington, Mass.). After arrival they were housed at 25° C. with 14:10 hour light:dark cycle. Water and Purina rat choow were availablle ad libitum. Pups were kept with their mothers until 21 days of age.
(§2) Normal saline with 0.1% gelatin was the vehicle for s.c. and i.v. injections of Compounds 1 and 2 . The unanesthetized rats, weighing 55-65 grams, were injected i.v. with 0.2 ml solution via the tail vein. All animals were sacrificed by quillotine 10 minutes after the final test injection unless specified otherwise. Trunk blood for growth hormone (GH) determinations was collected following decapitation. The blood was allowed to clot, centrifuged and the serum separated from the clot. Serum was kept frozen until the day of sampling for radioimmunoassay (RIA) of growth hormone levels according to the following procedure, as developed by the National Institute of Arthritis, Diabetes and Digestive and Kidney Diseases (NIADDK).
(§3) The mixed reagents are then typically incubated at room temperature (about 25° C.) for about 24 hours prior to addition of a second antibody (e.g., goat or rabbit anti-monkey gamma globulin serum) which binds to and cause precipitation of the complexed growth hormone antiserum. Precipitated contents of the RIA tubes are then analyzed for the number of counts in a specified period of time in a gamma scintillation counter. A standard curve is prepared by plotting number of radioactive counts as a function of growth hormone (GH) level. GH levels of unknowns are then determined by reference to the standard curve.
(§4) Serum GH was measured by RIA with reagents provided by the National Hormone and Pituitary Program. Serum levels are recorded in ng/ml in terms of the rat GH standard with 0.61 IU/mg. Data is recorded as the mean ± standard error of the mean (SEM). Statistical analysis was performed with student's t-test.
Compound 1 and Compound 2 of Examples 1 and 2, respectively, were each combined with the Group 2 and/or Group 3 polypeptides identified in Table 4 below and in the proprotions shown. The combinations were then tested for GH release in rats by the same procedure set forth in Example 3.

[2] = test system: growth hormone (GH); test: In vivo GH release in rats (serum GH by RIA, 10 minutes after i.v. injection); design: species or system Sprague-Dawley rats; conditions: for GH Release: immature female rats, serum GH 10 minutes after injection, mean ± SEM; for potency compared with Compound A (in words) / release of growth hormone when administered to rats via i.v. injection (in words): rats, i.v. injection
Procedure: as §1, §2
Reagents are generally added to the RIA analysis tubes at a single sitting, at refrigerator temperature (about 4° C.) in the following sequence:
(b) "cold" (i.e., non-radioactive) standard or unknown serum sample to be analyzed,
(c) radio-iodinated growth hormone antigen, and
(d) growth hormone antiserum.
Reagent addition is generally carried out so that there is achieved a final RIA tube dilution in the range of about 1:10,000 up to 1:500,000 (antiserum to total liquid volume; vol:vol).
as §3, §4

[3] = dose 10 of Column A compound combined with 30 μg Compound B
[4] = dose 30 of Column A compound combined with 30 μg Compound B

## CCCC[C@H](NC(=O)[C@@H](NC(=O)[C@H](CC(=O)O)NC(=O)[C@H](CCC(N)=O)NC(=O)[C@H](CC(C)C)NC(=O)[C@H](CC(C)C)NC(=O)[C@H](CCCCN)NC(=O)[C@H](CCCNC(=N)N)NC(=O)[C@H](C)NC(=O)[C@H](CO)NC(=O)[C@H](CC(C)C)NC(=O)[C@H](CCC(N)=O)NC(=O)[C@H](CS)NC(=O)[C@H](CC(C)C)NC(=O)[C@@H](NC(=O)[C@H](CCCCN)NC(=O)[C@H](CCCNC(=N)N)NC(=O)[C@H](Cc1ccc(O)cc1)NC(=O)[C@H](CS)NC(=O)[C@H](CC(N)=O)NC(=O)[C@@H](NC(=O)[C@H](Cc1ccccc1)NC(=O)[C@@H](NC(=O)[C@H](C)NC(=O)[C@H](CC(=O)O)NC(=O)[C@H](C)NC(=O)[C@@H](N)Cc1ccc(O)cc1)[C@@H](C)CC)[C@@H](C)O)C(C)C)[C@@H](C)CC)C(=O)N[C@@H](CO)C(=O)N[C@@H](CCCNC(=N)N)C(N)=O [Compound 1] (H-YADAIFTNCYRKVLCQLSARKLLQDI[Nle]SR-NH2)
[1]
  synergism with Group 3 Compound B (in words): act synergistically
[1]; dose 10, compound alone
  GH Release by Compound in Column A: 145 ± 41 ng/mL and 77 ± 10 ng/mL
[1]; [3]
  GH Release of Compound in Column A & 30 μg Compound B: 3314 ± 275 ng/mL and 2078 ± 395 ng/mL
[1]; dose 10 of Column A compound combined with 30 μg Compound B and 10 μg Compound C
  GH Release of Compound in Column A & 30 μg Compound B & 10 μg Compound C: 4947 ± 366 ng/mL
[1]; dose 30, compound alone
  GH Release by Compound in Column A: 151 ± 33 ng/mL
[1]; [4]
  GH Release of Compound in Column A & 30 μg Compound B: 2875 ± 472 ng/mL
[1]; dose 100, compound alone
  GH Release by Compound in Column A: 374 ± 94 ng/mL
[1]; dose 100 of Column A compound combined with 30 μg Compound B
  GH Release of Compound in Column A & 30 μg Compound B: 2328 ± 297 ng/mL
[2]; 10 μg i.v.
  GH Release: 145 ± 41 ng/mL
[2]; 30 μg i.v.
  GH Release: 151 ± 33 ng/mL
[2]; 100 μg i.v.
  GH Release: 374 ± 94 ng/mL
[2]
  potency compared with Compound A (in words): potencies similar to Compound A
  release of growth hormone when administered to rats via i.v. injection (in words): highly active

## CCCC[C@H](NC(=O)[C@@H](NC(=O)[C@H](CC(=O)O)NC(=O)[C@H](CCC(N)=O)NC(=O)[C@H](CC(C)C)NC(=O)[C@H](CC(C)C)NC(=O)[C@H](CCCCN)NC(=O)[C@H](CCCNC(=N)N)NC(=O)[C@H](C)NC(=O)[C@H](CO)NC(=O)[C@H](CC(C)C)NC(=O)[C@H](CCC(N)=O)NC(=O)[C@@H]1CSSC[C@H](NC(=O)[C@H](CC(N)=O)NC(=O)[C@@H](NC(=O)[C@H](Cc2ccccc2)NC(=O)[C@@H](NC(=O)[C@H](C)NC(=O)[C@H](CC(=O)O)NC(=O)[C@H](C)NC(=O)[C@@H](N)Cc2ccc(O)cc2)[C@@H](C)CC)[C@@H](C)O)C(=O)N[C@@H](Cc2ccc(O)cc2)C(=O)N[C@@H](CCCNC(=N)N)C(=O)N[C@@H](CCCCN)C(=O)N[C@@H](C(C)C)C(=O)N[C@@H](CC(C)C)C(=O)N1)[C@@H](C)CC)C(=O)N[C@@H](CO)C(=O)N[C@@H](CCCNC(=N)N)C(N)=O [Compound 2] (H-YADAIFTNCYRKVLCQLSARKLLQDI[Nle]SR-NH2; disulfide 9-15)
[1]
  synergism with Group 3 Compound B (in words): act synergistically
[1]; dose 3, compound alone
  GH Release by Compound in Column A: 62 ± 8 ng/mL
[1]; dose 3 of Column A compound combined with 30 μg Compound B
  GH Release of Compound in Column A & 30 μg Compound B: 1689 ± 264 ng/mL
[1]; dose 10, compound alone
  GH Release by Compound in Column A: 99 ± 11 ng/mL and 105 ± 29 ng/mL
[1]; [3]
  GH Release of Compound in Column A & 30 μg Compound B: 3733 ± 515 ng/mL and 2241 ± 323 ng/mL
[1]; dose 30, compound alone
  GH Release by Compound in Column A: 132 ± 24 ng/mL
[1]; [4]
  GH Release of Compound in Column A & 30 μg Compound B: 2652 ± 560 ng/mL
[2]; 3 μg i.v.
  GH Release: 62 ± 8 ng/mL
[2]; 10 μg i.v.
  GH Release: 99 ± 11 ng/mL
[2]; 30 μg i.v.
  GH Release: 132 ± 24 ng/mL
[2]
  potency compared with Compound A (in words): potencies similar to Compound A
  release of growth hormone when administered to rats via i.v. injection (in words): highly active
